For test [1], the system named is Pseudomonas aeruginosa. As to the kind of experiment: Antibacterial activity against Pseudomonas aeruginosa ATCC 9027 at 10 ug/mL after 24 hrs by disc diffusion method. It is filed as functional. The settings on record: ATCC 9027, 24 h, read-out: IZ.
The subject of test [2] is Escherichia coli. As to the kind of experiment: Antibacterial activity against Escherichia coli ATCC 35218 at 10 ug/mL after 24 hrs by disc diffusion method. The class given is functional. The note with it: ATCC 35218, 24 h, read-out: IZ.
In test [3] the test system is Salmonella typhi. As to the kind of experiment: Antibacterial activity against Salmonella typhi ATCC 6539 at 10 ug/mL after 24 hrs by disc diffusion method. The class given is functional, Salmonella enterica subsp. enterica serovar Typhi. The settings on record: Salmonella enterica, ATCC 6539, 24 h; read-out: IZ.
In test [4] the test system is Staphylococcus aureus. Description: Antibacterial activity against Staphylococcus aureus ATCC 6538 at 10 ug/mL after 24 hrs by disc diffusion method. The class given is functional. The note with it: ATCC 6538, 24 h, read-out: IZ.
Test [5] relates to Bacillus subtilis. As to the kind of experiment: Antibacterial activity against Bacillus subtilis ATCC 6631 at 10 ug/mL after 24 hrs by disc diffusion method. It is filed as functional. The settings on record: ATCC 6631, 24 h, read-out: IZ.
Test [6] deals with Lysinibacillus sphaericus. Description: Antibacterial activity against Bacillus sphaericus ATCC 7031 at 10 ug/mL after 24 hrs by disc diffusion method. It is filed as functional. The note with it: ATCC 7031, 24 h, read-out: IZ.
The test system of test [7] is Pseudomonas aeruginosa. Description: Antibacterial activity against Pseudomonas aeruginosa ATCC 9027 by twofold serial dilution technique. The class given is functional.
Test [8] relates to Escherichia coli. As to the kind of experiment: Antibacterial activity against Escherichia coli ATCC 35218 by twofold serial dilution technique. It is filed as functional.
Test [9] deals with Salmonella typhi. Description: Antibacterial activity against Salmonella typhi ATCC 6539 by twofold serial dilution technique. The note with it: Salmonella enterica. The class given is functional, Salmonella enterica subsp. enterica serovar Typhi.
Test [10] has as its system Staphylococcus aureus. As to the kind of experiment: Antibacterial activity against Staphylococcus aureus ATCC 6538 by twofold serial dilution technique. The class given is functional.
In test [11] the test system is Bacillus subtilis. As to the kind of experiment: Antibacterial activity against Bacillus subtilis ATCC 6631 by twofold serial dilution technique. It is filed as functional.
Test [12] deals with Lysinibacillus sphaericus. As to the kind of experiment: Antibacterial activity against Bacillus sphaericus ATCC 7031 by twofold serial dilution technique. It is filed as functional.
In test [13] the test system is Candida albicans. Description: Antifungal activity against Candida albicans ATCC 90028 at 10 ug/mL after 72 hrs by agar cup plate method. It is filed as functional. The note with it: ATCC 90028, 72 h, read-out: IZ.
The subject of test [14] is Candida albicans. As to the kind of experiment: Antifungal activity against Candida albicans PYCC 3436 at 10 ug/mL after 72 hrs by agar cup plate method. The class given is functional. The note with it: PYCC 3436, 72 h, read-out: IZ.
The subject of test [15] is Aspergillus niger. Description: Antifungal activity against Aspergillus niger ATCC 16404 at 10 ug/mL after 72 hrs by agar cup plate method. The class given is functional. The note with it: ATCC 16404, 72 h, read-out: IZ.
Test [16] relates to Aspergillus fumigatus. Description: Antifungal activity against Aspergillus fumigatus ATCC 28212 at 10 ug/mL after 72 hrs by agar cup plate method. The class given is functional. The settings on record: ATCC 28212, 72 h, read-out: IZ.
The test system of test [17] is Candida albicans. As to the kind of experiment: Antifungal activity against Candida albicans ATCC 90028 by twofold serial dilution technique. It is filed as functional.
Test [18] concerns Candida albicans. As to the kind of experiment: Antifungal activity against Candida albicans PYCC 3436 by twofold serial dilution technique. The class given is functional.
The subject of test [19] is Aspergillus niger. As to the kind of experiment: Antifungal activity against Aspergillus niger ATCC 16404 by twofold serial dilution technique. It is filed as functional.
Test [20] deals with Aspergillus fumigatus. Description: Antifungal activity against Aspergillus fumigatus ATCC 28212 by twofold serial dilution technique. The class given is functional.

SMILES strings stand for the structures. ≈ marks a conversion by molar mass, not a printed value.

As for `c1ccc(CN2C(c3ccccc3)C3=C(NOC3c3c[nH]c4ccccc34)C3CCCCC32)cc1` (stereo not given), the zone of inhibition at 10 µg/mL in the test with Pseudomonas aeruginosa [1] was found to be 5 mm; in the test on Escherichia coli [2], 7 mm; in the test with Salmonella typhi [3], 7 mm; in the test on Staphylococcus aureus [4] it was 11 mm; in the test with Bacillus subtilis [5], 3 mm; in [6], 6 mm. The zone of inhibition at 10 µg/mL in the test with Candida albicans [13] turned out to be 13 mm; in the test with Candida albicans [14] it was 11 mm; in the test on Aspergillus niger [15] it was 9 mm; in the test on Aspergillus fumigatus [16] it was 5 mm. The MIC99 with Pseudomonas aeruginosa [7] is 25 µg/mL (≈ 54.2 µM); in the test on Escherichia coli [8] it was 25 µg/mL (≈ 54.2 µM); against Salmonella typhi [9] it was more than 100 µg/mL; against Staphylococcus aureus [10] it was 50 µg/mL (≈ 108 µM); against Bacillus subtilis [11], more than 100 µg/mL; in test [12] it was 100 µg/mL (≈ 217 µM). Besides, the MIC99 is 100 µg/mL (≈ 217 µM) in the test with Candida albicans [17], 50 µg/mL (≈ 108 µM) in the test on Candida albicans [18], more than 100 µg/mL against Aspergillus niger [19] and 25 µg/mL (≈ 54.2 µM) with Aspergillus fumigatus [20].
`COc1ccc(C2ONC3=C2C(c2ccccc2)N(Cc2ccccc2)C2CCCCC32)cc1OC` (stereo not given): the zone of inhibition at 10 µg/mL amounted to 4 mm in the test with Pseudomonas aeruginosa [1]; 6 mm in the test with Escherichia coli [2]; 12 mm in the test with Salmonella typhi [3]; 9 mm with Staphylococcus aureus [4]; 7 mm with Bacillus subtilis [5]; 9 mm in [6]. The zone of inhibition at 10 µg/mL in the test with Candida albicans [13] was determined as 15 mm; in the test on Candida albicans [14], 9 mm; with Aspergillus niger [15], 14 mm; with Aspergillus fumigatus [16], 6 mm. Also, the MIC99 with Pseudomonas aeruginosa [7] was 25 µg/mL (≈ 51.8 µM); in the test on Escherichia coli [8] it was 50 µg/mL (≈ 104 µM); against Salmonella typhi [9] it was 100 µg/mL (≈ 207 µM); against Staphylococcus aureus [10], 100 µg/mL (≈ 207 µM); against Bacillus subtilis [11] it was 50 µg/mL (≈ 104 µM); in test [12], 100 µg/mL (≈ 207 µM). In addition, the MIC99 against Candida albicans [17] is 50 µg/mL (≈ 104 µM); in the test on Candida albicans [18], 50 µg/mL (≈ 104 µM); with Aspergillus niger [19], 100 µg/mL (≈ 207 µM); in the test on Aspergillus fumigatus [20], 12.5 µg/mL (≈ 25.9 µM).
With `O=[N+]([O-])c1ccc(C2ONC3=C2C(c2ccccc2)N(Cc2ccccc2)C2CCCCC32)cc1` (stereo not given), the zone of inhibition at 10 µg/mL is 6 mm in the test on Pseudomonas aeruginosa [1]; 5 mm in the test on Escherichia coli [2]; 10 mm with Salmonella typhi [3]; 11 mm in the test with Staphylococcus aureus [4]; 4 mm with Bacillus subtilis [5]; 14 mm in [6]. In addition, the zone of inhibition at 10 µg/mL with Candida albicans [13] is 19 mm; in the test with Candida albicans [14], 12 mm; in the test on Aspergillus niger [15] it was 13 mm; in the test on Aspergillus fumigatus [16], 6 mm. Further, the MIC99 worked out at 12.5 µg/mL (≈ 26.7 µM) against Pseudomonas aeruginosa [7]; 50 µg/mL (≈ 107 µM) in the test with Escherichia coli [8]; 100 µg/mL (≈ 214 µM) against Salmonella typhi [9]; 50 µg/mL (≈ 107 µM) in the test on Staphylococcus aureus [10]; 100 µg/mL (≈ 214 µM) against Bacillus subtilis [11]; 50 µg/mL (≈ 107 µM) in test [12]. Further, the MIC99 in the test with Candida albicans [17] stood at 50 µg/mL (≈ 107 µM); against Candida albicans [18] it was 50 µg/mL (≈ 107 µM); with Aspergillus niger [19], 100 µg/mL (≈ 214 µM); against Aspergillus fumigatus [20], 12.5 µg/mL (≈ 26.7 µM).
As to `c1ccc(CN2C(c3ccccc3)C3=C(NOC3c3ccccn3)C3CCCCC32)cc1` (stereo not given), the zone of inhibition at 10 µg/mL is 7 mm with Pseudomonas aeruginosa [1]; 7 mm with Escherichia coli [2]; 11 mm with Salmonella typhi [3]; 12 mm in the test on Staphylococcus aureus [4]; 6 mm with Bacillus subtilis [5]; 16 mm in test [6]. The zone of inhibition at 10 µg/mL worked out at 18 mm with Candida albicans [13], 18 mm in the test with Candida albicans [14], 10 mm with Aspergillus niger [15] and 7 mm in the test with Aspergillus fumigatus [16]. Further, the MIC99 turned out to be 12.5 µg/mL (≈ 29.5 µM) with Pseudomonas aeruginosa [7]; 25 µg/mL (≈ 59 µM) against Escherichia coli [8]; 50 µg/mL (≈ 118 µM) with Salmonella typhi [9]; 50 µg/mL (≈ 118 µM) in the test on Staphylococcus aureus [10]; 50 µg/mL (≈ 118 µM) with Bacillus subtilis [11]; 25 µg/mL (≈ 59 µM) in test [12]. Moreover, the MIC99 with Candida albicans [17] stood at 50 µg/mL (≈ 118 µM); with Candida albicans [18], 12.5 µg/mL (≈ 29.5 µM); with Aspergillus niger [19], 100 µg/mL (≈ 236 µM); against Aspergillus fumigatus [20] it was 12.5 µg/mL (≈ 29.5 µM).
As for `c1ccc(CN2C(c3ccccc3)C3=C(NOC3c3cccnc3)C3CCCCC32)cc1` (stereo not given), the zone of inhibition at 10 µg/mL was 4 mm in the test on Pseudomonas aeruginosa [1]; 4 mm in the test on Escherichia coli [2]; 11 mm in the test with Salmonella typhi [3]; 11 mm with Staphylococcus aureus [4]; 3 mm in the test with Bacillus subtilis [5]; 13 mm in [6]. The zone of inhibition at 10 µg/mL in the test with Candida albicans [13] came to 17 mm; in the test on Candida albicans [14], 17 mm; in the test with Aspergillus niger [15], 8 mm; in the test on Aspergillus fumigatus [16], 6 mm. Also, the MIC99 is 50 µg/mL (≈ 118 µM) in the test with Pseudomonas aeruginosa [7]; 100 µg/mL (≈ 236 µM) in the test with Escherichia coli [8]; 100 µg/mL (≈ 236 µM) in the test with Salmonella typhi [9]; 50 µg/mL (≈ 118 µM) in the test on Staphylococcus aureus [10]; 100 µg/mL (≈ 236 µM) in the test on Bacillus subtilis [11]; 50 µg/mL (≈ 118 µM) in test [12]. Besides, the MIC99 with Candida albicans [17] was 50 µg/mL (≈ 118 µM); with Candida albicans [18], 12.5 µg/mL (≈ 29.5 µM); against Aspergillus niger [19], more than 100 µg/mL; against Aspergillus fumigatus [20], 12.5 µg/mL (≈ 29.5 µM).

Source of the values: ChEMBL document CHEMBL1926636, “Isoxazoles incorporated N-substituted decahydroquinolines: a precursor to the next generation antimicrobial drug” (2012).
